A word on the inhibition: it is the drop in the measured response relative to a control, in per cent.

In this test the target is T1, IKKβ (Homo sapiens, UniProt O14920).
T1 construct: purchased Upstate Biotechnology Inc. 14-485
T1 sequence (O14920 1-756): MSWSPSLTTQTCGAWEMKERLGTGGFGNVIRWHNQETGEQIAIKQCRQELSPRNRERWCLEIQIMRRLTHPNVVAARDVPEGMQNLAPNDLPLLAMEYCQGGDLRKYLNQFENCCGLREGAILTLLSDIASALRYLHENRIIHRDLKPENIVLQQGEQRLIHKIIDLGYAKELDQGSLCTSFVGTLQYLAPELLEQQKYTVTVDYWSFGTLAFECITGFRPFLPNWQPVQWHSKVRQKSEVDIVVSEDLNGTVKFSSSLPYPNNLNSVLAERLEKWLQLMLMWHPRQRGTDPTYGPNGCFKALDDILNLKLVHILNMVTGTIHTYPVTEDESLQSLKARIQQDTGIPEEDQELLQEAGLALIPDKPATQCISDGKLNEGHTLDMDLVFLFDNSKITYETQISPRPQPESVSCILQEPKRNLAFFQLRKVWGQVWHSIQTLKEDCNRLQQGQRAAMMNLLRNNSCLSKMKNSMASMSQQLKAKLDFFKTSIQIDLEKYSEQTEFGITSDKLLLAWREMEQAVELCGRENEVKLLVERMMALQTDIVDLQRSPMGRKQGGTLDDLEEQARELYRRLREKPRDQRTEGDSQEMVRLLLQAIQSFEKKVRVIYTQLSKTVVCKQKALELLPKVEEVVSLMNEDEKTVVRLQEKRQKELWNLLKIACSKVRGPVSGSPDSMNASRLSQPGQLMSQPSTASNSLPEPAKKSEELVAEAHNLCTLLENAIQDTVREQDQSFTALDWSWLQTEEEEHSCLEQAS
Kind of test: IKKβ inhibition assay by fluorescence polarization (IMAP kit). The settings on record: test compound at 1 μM; inhibition rate exceeding 100% is indicated as 100%. In kind it is biochemical. As for the experimental part:
Details of the above will be described in detail in [Pharmacological Test] in Examples described below in this specification. IKKβ inhibition assay by fluorescence polarization was performed using IMAP™ IKKβ assay kit (manufactured by Molecular Devices Corporation, catalogue No. R8115) or IMAP™ FP Screening Express kit (manufactured by Molecular Devices Corporation, catalogue No. R8127).
In order to evaluate IKKβ inhibitory activity of the present compounds, an IKKβ inhibition assay by a fluorescence polarization method was conducted. The assay was conducted using IMAP™ IKKβ assay kit (manufactured by Molecular Devices Corporation, catalogue No. R8115) or IMAP™ FP Screening Express kit (manufactured by Molecular Devices Corporation, catalogue No. R8127) in accordance with the protocol attached to each kit. The specific methods are described below.
1) Complete Reaction Buffer: a complete reaction buffer was so prepared to obtain a final composition of 10 mM Tris-HCL (pH 7.2), 10 mM magnesium chloride, 0.1% bovine serum albumin, and 1 mM dithiothreitol.
2) Substrate Working Solution: 400 nM substrate working solution was prepared by dissolving and diluting a fluorescein-labeled IKKβ substrate peptide (amino acid sequence: GRHDSGLDSMK) with the complete reaction buffer.
3) Enzyme Working Solution: 0.2 units/mL enzyme working solution was prepared by diluting IKKβ solution (manufactured by Upstate Biotechnology Inc., catalogue No. 14-485) with the complete reaction buffer.
4) ATP Working Solution: 8 μM ATP working solution was prepared by dissolving ATP into ultrapure water followed by diluting it with the complete reaction buffer.
5) IMAP binding solution: After diluting an IMAP binding buffer with ultrapure water, an IMAP binding solution was prepared by diluting an IMAP binding reagent with the diluted IMAP binding buffer.
A test compound was dissolved in dimethyisulfoxide followed by diluting it with the complete reaction buffer to prepare 4 μM test compound solution.
1) To a 384-well plate, the test compound solution, the enzyme working solution, the substrate working solution, and the ATP working solution were added in an amount of 5 μL per well.
2) Incubation was performed at room temperature for 60 minutes under light shielding.
3) The IMAP binding solution was added in an amount of 60 μL per well.
4) Incubation was performed at room temperature for 30 minutes under light shielding.
5) Fluorescence polarization value of each well was measured by using Analyst™ HT (multimode plate reader manufactured by Molecular Devices Corporation) and Criterion Host Software v2.00 (manufactured by Molecular Devices Corporation).
6) Operations were performed in the same manner as in 1) to 5) except for changing the test compound to 0.4% dimethylsulfoxide. The obtained result was designated as a control.
7) Operations were performed in the same manner as in 1) to 5) except for changing the test compound and the enzyme working solution to 0.4% dimethylsulfoxide and the complete reaction buffer, respectively. The obtained result was designated as a background.
An IKKβ inhibition rate (%) was calculated by the following equation.
IKKβ inhibition rate (%)=100×{1-(fluorescence polarization value of test compound−fluorescence polarization value of background)/(fluorescence polarization value of control−fluorescence polarization value of background)}
`NC(=O)Nc1[nH]c2cc(OCC3CC3)ccc2c1C(N)=O` [Compound No. 3-2, 2-Aminocarbonylamino-6-cyclopropylmethyloxyindole-3-carboxamide] displayed an inhibition at 1 µM of 91%.

Turning to `COc1c(-c2ccoc2)cc(F)c2c(C(N)=O)c(NC(N)=O)[nH]c12` [Compound No. 8-3, 2-Aminocarbonylamino-4-fluoro-6-(furan-3-yl)-7-methoxyindole-3-carboxamide], 1 µM produced 87% inhibition.

Regarding `COc1ccc(F)c2c(C(N)=O)c(NC(N)=O)[nH]c12` [Compound No. 1-4, 2-Aminocarbonylamino-4-fluoro-7-methoxyindole-3-carboxamide], the inhibition at 1 µM is 60%.

Compound `Cc1cc([N+](=O)[O-])ccc1Oc1ccc2c(C(N)=O)c(NC(N)=O)[nH]c2c1` [Compound No. 4-6, 2-Aminocarbonylamino-6-(2-methyl-4-nitrophenyloxy)indole-3-carboxamide] registered an inhibition at 1 µM of 97%.

For `NC(=O)Nc1[nH]c2cc(Oc3ccnc(Cl)c3)ccc2c1C(N)=O` [Compound No. 4-3, 2-Aminocarbonylamino-6-(2-chloropyridine-4-yloxy)indole-3-carboxamide], the inhibition at 1 µM was found to be 89%.

The compound `NC(=O)Nc1[nH]c2cc(Oc3ccc([N+](=O)[O-])cc3)ccc2c1C(N)=O` [Compound No. 4-1, 2-Aminocarbonylamino-6-(4-nitrophenyloxy)indole-3-carboxamide] showed an inhibition at 1 µM of 100%.

`COc1cccc2c(C(N)=O)c(NC(N)=O)[nH]c12` [Compound No. 1-3, 2-Aminocarbonylamino-7-methoxyindole-3-carboxamide] displayed an inhibition at 1 µM of 78%.

`NC(=O)Nc1[nH]c2cc(Oc3ccc(Cl)cc3)ccc2c1C(N)=O` [Compound No. 9-1, 2-Aminocarbonylamino-6-(4-chlorophenyloxy)indole-3-carboxamide] gave an inhibition at 1 µM of 92%.

In turn, `CC(=O)Nc1ccc(Oc2ccc3c(C(N)=O)c(NC(N)=O)[nH]c3c2)cc1` [Compound No. 6-1, 6-(4-Acetylaminophenyloxy)-2-(aminocarbonylamino)indole-3-carboxamide] had an inhibition at 1 µM of 98%.

`COc1ccc2c(C(N)=O)c(NC(N)=O)[nH]c2c1` [Compound No. 1-1, 2-Aminocarbonylamino-6-methoxyindole-3-carboxamide] gave an inhibition at 1 µM of 95%.

`NC(=O)Nc1[nH]c2cc(O)ccc2c1C(N)=O` [Compound No. 2-1, 2-Aminocarbonylamino-6-hydroxyindole-3-carboxamide] gave an inhibition at 1 µM of 90%.

`C=Cc1cc(F)c2c(C(N)=O)c(NC(N)=O)[nH]c2c1OC` [Compound No. 8-2, 2-Aminocarbonylamino-4-fluoro-7-methoxy-6-vinylindole-3-carboxamide]: the inhibition at 1 µM was 91%.

The values are drawn from patent publication US8445529B2, “Indole derivative having, carbamoyl group, ureido group and substituted oxy group” (Santen Pharmaceutical Co., Ltd., priority 2008, dated 2013).
